Laboratory results from paper PMC3688941, “Characterization of a Chitin-Binding Protein from Bacillus thuringiensis HD-1” (PLoS ONE, 2013).

Assays:
[1] = system: T1, Bt-Chitinase; assay: fluorometric chitinase assay; format: biochemical, Bacillus thuringiensis serovar kurstaki; settings: 50 mM sodium phosphate pH 7.0, 30 °C, 20 min; without Bt-CBP21; footnote gives substrate as 50 µM
T1 construct: EC 3.2.1.14
Source text: fluorometric chitinase assay on Bt-Chitinase

[2] = system: Ha-Chitinase; assay: fluorometric chitinase assay; format: biochemical, Helicoverpa armigera; settings: 50 mM sodium phosphate pH 7.0, 30 °C, 20 min; without Bt-CBP21; footnote gives substrate as 50 µM
Source text: fluorometric chitinase assay on Ha-Chitinase

For `CC(=O)N[C@H]1[C@H](Oc2ccc3c(C)cc(=O)oc3c2)O[C@H](CO)[C@@H](O[C@@H]2O[C@H](CO)[C@@H](O)[C@H](O)[C@H]2NC(C)=O)[C@@H]1O` [4-MU-(GlcNAc)2], the Km [1] was 30 µM and the Km [2] was 1.4 µM.
